How the values were obtained:
[1] = molecular target: Glutamate receptor ionotropic, NMDA 1 (Rattus norvegicus, UniProt P35439)
[2] = molecular target: Delta-type opioid receptor (Homo sapiens, UniProt P41143)
[3] = molecular target: T1, 5-hydroxytryptamine receptor 2C (Homo sapiens, UniProt P28335)
T1 sequence (P28335 whole entry): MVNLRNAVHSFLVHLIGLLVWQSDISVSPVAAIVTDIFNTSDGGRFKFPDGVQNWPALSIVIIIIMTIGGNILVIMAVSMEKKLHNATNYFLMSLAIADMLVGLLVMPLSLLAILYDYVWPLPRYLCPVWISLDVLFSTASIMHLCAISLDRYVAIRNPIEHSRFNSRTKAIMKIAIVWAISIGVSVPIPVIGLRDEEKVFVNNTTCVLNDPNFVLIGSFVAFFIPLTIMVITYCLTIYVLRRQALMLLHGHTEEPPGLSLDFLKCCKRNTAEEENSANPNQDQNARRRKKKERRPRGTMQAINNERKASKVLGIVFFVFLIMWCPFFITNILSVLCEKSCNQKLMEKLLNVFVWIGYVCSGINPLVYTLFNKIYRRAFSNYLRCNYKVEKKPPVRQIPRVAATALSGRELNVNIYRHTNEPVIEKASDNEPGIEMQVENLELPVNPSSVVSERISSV

[4] = molecular target: Sodium-dependent dopamine transporter (Homo sapiens, UniProt Q01959)
Sequence of Sodium-dependent dopamine transporter (Q01959 whole entry): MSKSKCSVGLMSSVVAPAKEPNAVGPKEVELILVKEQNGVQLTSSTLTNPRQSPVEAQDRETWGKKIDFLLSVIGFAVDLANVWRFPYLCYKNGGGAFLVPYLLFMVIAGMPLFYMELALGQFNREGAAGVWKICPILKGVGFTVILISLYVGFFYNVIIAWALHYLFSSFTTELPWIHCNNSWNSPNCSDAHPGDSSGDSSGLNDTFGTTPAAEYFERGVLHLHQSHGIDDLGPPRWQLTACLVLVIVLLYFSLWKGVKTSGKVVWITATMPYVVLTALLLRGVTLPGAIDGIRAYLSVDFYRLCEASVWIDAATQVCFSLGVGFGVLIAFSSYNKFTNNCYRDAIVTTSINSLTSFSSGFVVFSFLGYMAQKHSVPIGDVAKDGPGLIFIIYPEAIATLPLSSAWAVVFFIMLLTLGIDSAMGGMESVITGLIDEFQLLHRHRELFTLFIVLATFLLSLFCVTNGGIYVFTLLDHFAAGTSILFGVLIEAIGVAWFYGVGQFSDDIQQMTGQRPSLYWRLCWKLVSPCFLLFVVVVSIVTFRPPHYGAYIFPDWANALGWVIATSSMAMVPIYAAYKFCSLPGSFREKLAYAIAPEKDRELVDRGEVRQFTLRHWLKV

[5] = molecular target: Gamma-aminobutyric acid receptor subunit alpha-1 (Rattus norvegicus, UniProt P62813)
Sequence of Gamma-aminobutyric acid receptor subunit alpha-1 (P62813 whole entry): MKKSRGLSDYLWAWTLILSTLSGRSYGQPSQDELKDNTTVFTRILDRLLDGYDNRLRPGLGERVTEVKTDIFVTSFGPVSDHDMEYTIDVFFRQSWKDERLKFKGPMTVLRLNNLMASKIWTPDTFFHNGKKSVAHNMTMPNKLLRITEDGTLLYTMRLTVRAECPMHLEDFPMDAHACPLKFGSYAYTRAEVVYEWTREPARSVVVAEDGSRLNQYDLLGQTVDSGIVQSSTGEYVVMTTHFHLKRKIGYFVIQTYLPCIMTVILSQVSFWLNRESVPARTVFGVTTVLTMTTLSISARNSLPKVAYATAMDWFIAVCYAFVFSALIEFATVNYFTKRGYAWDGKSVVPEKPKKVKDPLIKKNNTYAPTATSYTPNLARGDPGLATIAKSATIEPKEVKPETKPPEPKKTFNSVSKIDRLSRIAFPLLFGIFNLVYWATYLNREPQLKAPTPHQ

[6] = molecular target: D(1A) dopamine receptor (Homo sapiens, UniProt P21728); format: functional, cell-based
Sequence of D(1A) dopamine receptor (P21728 whole entry): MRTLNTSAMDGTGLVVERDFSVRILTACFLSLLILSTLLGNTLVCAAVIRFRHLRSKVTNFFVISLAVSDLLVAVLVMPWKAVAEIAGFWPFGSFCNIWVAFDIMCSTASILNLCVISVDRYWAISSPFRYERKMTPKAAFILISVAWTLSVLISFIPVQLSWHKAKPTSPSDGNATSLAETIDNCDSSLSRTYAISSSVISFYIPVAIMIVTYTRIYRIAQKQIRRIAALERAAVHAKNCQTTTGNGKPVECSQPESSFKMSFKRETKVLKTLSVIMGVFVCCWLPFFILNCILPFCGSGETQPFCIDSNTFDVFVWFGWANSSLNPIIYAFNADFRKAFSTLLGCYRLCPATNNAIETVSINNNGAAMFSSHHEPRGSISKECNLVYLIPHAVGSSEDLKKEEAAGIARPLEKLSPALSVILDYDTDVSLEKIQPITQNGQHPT

[7] = molecular target: T2, Thromboxane A2 receptor (Homo sapiens, UniProt P21731)
T2 sequence (P21731 whole entry): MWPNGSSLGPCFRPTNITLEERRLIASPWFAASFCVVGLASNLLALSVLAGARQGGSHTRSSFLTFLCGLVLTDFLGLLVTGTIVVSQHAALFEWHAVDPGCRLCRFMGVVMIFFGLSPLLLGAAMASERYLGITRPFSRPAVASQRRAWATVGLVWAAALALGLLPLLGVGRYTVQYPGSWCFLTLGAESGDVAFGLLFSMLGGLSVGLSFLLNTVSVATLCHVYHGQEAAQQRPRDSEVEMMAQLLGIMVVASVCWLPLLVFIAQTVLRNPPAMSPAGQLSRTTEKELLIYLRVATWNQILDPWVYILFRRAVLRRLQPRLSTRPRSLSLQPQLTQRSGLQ

[8] = molecular target: T3, Alpha-1A adrenergic receptor (Homo sapiens, UniProt P35348)
T3 sequence (P35348 whole entry): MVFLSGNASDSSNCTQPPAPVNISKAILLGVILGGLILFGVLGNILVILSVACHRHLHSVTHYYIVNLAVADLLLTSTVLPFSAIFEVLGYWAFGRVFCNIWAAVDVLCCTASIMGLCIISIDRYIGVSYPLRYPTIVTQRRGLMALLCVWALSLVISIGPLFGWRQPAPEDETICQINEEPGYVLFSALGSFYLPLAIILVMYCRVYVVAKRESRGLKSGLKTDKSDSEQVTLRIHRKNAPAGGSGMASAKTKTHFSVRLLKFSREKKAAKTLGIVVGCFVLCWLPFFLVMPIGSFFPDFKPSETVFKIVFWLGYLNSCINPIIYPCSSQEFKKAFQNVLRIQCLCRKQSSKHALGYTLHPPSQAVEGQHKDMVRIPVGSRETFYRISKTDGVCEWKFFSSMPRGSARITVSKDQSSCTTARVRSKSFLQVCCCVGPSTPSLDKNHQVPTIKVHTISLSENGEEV

[9] = molecular target: T4, Adenosine receptor A3 (Homo sapiens, UniProt P0DMS8)
T4 sequence (P0DMS8 whole entry): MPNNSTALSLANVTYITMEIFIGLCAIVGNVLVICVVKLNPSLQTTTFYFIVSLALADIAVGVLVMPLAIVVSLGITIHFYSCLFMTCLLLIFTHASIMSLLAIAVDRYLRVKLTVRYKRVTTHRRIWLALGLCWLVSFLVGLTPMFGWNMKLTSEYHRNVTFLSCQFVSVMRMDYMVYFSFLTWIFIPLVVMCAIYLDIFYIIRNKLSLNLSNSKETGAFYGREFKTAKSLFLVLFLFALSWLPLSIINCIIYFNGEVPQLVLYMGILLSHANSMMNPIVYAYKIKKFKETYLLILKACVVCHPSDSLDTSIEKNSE

[10] = molecular target: T5, Progesterone receptor (Homo sapiens, UniProt P06401); format: functional
T5 sequence (P06401 whole entry): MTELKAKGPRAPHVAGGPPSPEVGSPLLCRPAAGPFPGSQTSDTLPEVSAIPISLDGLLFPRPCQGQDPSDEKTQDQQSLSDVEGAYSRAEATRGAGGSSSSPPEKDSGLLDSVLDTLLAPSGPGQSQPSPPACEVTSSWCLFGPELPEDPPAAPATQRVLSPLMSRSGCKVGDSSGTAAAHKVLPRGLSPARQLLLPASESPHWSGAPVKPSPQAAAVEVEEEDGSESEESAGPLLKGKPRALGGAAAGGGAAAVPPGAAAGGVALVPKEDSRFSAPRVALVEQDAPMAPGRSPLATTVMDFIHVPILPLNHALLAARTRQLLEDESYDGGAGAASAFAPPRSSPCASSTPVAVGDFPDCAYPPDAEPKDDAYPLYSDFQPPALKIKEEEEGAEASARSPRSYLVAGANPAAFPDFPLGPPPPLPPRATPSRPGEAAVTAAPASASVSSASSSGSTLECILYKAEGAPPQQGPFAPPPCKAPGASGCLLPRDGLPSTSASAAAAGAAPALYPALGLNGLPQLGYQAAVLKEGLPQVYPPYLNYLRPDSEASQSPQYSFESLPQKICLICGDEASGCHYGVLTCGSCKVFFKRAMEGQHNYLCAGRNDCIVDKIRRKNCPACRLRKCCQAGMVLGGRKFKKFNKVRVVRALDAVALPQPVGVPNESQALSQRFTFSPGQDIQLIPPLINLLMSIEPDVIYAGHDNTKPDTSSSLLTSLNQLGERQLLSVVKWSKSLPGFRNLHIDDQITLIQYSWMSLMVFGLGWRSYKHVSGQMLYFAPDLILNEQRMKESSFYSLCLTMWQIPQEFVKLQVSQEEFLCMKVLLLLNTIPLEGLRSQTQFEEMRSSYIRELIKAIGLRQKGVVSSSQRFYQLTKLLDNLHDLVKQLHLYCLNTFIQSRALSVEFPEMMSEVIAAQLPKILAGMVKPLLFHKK
Further: assay procedure not described here.

Sequence of Delta-type opioid receptor (P41143 whole entry): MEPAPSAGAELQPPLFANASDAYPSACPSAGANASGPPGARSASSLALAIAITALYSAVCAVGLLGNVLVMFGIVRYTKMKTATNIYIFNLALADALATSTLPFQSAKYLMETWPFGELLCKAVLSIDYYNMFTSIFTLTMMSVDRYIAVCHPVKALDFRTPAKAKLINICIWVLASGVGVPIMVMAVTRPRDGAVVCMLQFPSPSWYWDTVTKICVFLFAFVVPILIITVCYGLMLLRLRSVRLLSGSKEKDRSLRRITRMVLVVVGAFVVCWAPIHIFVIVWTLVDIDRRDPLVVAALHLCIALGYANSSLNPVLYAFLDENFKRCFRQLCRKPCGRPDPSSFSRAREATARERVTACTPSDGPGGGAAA

| Structure (SMILES) | AC50 [1] | AC50 [2] | AC50 [3] | AC50 [4] | AC50 [5] | AC50 [6] | AC50 [7] | AC50 [8] | AC50 [9] | AC50 [10] |
| --- | --- | --- | --- | --- | --- | --- | --- | --- | --- | --- |
| C[C@]12CC[C@H](O)CC1=CC[C@@H]1[C@@H]2CC[C@]2(C)C(c3cccnc3)=CC[C@@H]12 [ABIRATERONE] | > 10 µM | > 30 µM | > 30 µM | > 30 µM | > 10 µM | > 10 µM | > 30 µM | > 10 µM | > 30 µM |  |
| CC(=O)OCC[N+](C)(C)C [ACETYLCHOLINE] | > 10 µM | > 10 µM | > 30 µM | > 30 µM | > 10 µM | > 10 µM | > 30 µM | > 10 µM | > 30 µM | > 30 µM |
| NS(=O)(=O)c1cc(C2(O)NC(=O)c3ccccc32)ccc1Cl (stereo not drawn) [CHLORTHALIDONE] | > 10 µM |  | > 30 µM | > 10 µM | > 10 µM | > 10 µM | > 10 µM | > 10 µM | > 10 µM | > 10 µM |
| COc1ccc2c(c1)[C@]13CCCC[C@@H]1[C@H](C2)N(C)CC3 [DEXTROMETHORPHAN] |  | > 10 µM | > 30 µM | > 10 µM | > 10 µM | > 10 µM | > 30 µM | 3.58 µM | > 30 µM |  |
| O=c1oc2ccccc2c(O)c1Cc1c(O)c2ccccc2oc1=O [DICUMAROL] | > 10 µM | > 30 µM | > 30 µM | > 10 µM | > 10 µM | > 10 µM | > 10 µM | > 10 µM | > 10 µM | > 10 µM |
| CCn1cc(C(=O)O)c(=O)c2cc(F)c(N3CCNCC3)nc21 [ENOXACIN] | > 10 µM | > 10 µM | > 10 µM | > 10 µM | > 10 µM | > 10 µM | 6.06 µM | > 10 µM | > 30 µM |  |
| C#C[C@]1(O)CC[C@H]2[C@@H]3CCc4cc(OC)ccc4[C@H]3CC[C@@]21C [MESTRANOL] | > 10 µM | > 30 µM | > 30 µM | 20 µM | > 10 µM | > 10 µM | > 10 µM | > 30 µM | > 30 µM |  |
| NS(=O)(=O)c1cc(C(=O)O)cc(N2CCCC2)c1Oc1ccccc1 [PIRETANIDE] | > 30 µM | > 30 µM | > 30 µM | > 30 µM | > 30 µM | > 30 µM | > 30 µM |  | > 30 µM | > 30 µM |
| CNCCCC1c2ccccc2C=Cc2ccccc21 [PROTRIPTYLINE] | > 10 µM | > 30 µM |  | 17.8 µM | > 10 µM | > 10 µM | > 10 µM | 0.461 µM | > 10 µM | > 10 µM |
| COCCCOc1ccnc(C[S+]([O-])c2nc3ccccc3[nH]2)c1C (stereo not drawn) [RABEPRAZOLE] | > 10 µM | > 30 µM | > 30 µM | > 10 µM | > 10 µM | > 10 µM | 11.4 µM | > 10 µM | 2.2 µM |  |
| CC(C)=CCOc1ccc(/C=C/C(=O)c2ccc(OCC=C(C)C)cc2OCC(=O)O)cc1 [SOFALCONE] | > 30 µM | 26 µM | > 30 µM | 13 µM | > 30 µM | > 30 µM | 13 µM |  | 5.5 µM | 9.4 µM |
| O=C(CCCN1CCC2(CC1)C(=O)NCN2c1ccccc1)c1ccc(F)cc1 [SPIPERONE] | > 30 µM |  | 10.3 µM | 7.2 µM | > 30 µM |  | > 30 µM | 0.31 µM | > 30 µM | > 30 µM |
| CN(C)c1cc(NC(=O)CNC(C)(C)C)c(O)c2c1C[C@H]1C[C@H]3[C@H](N(C)C)C(O)=C(C(N)=O)C(=O)[C@@]3(O)C(O)=C1C2=O [TIGECYCLINE] | > 30 µM | > 30 µM | > 30 µM | > 30 µM | > 30 µM | > 30 µM | > 30 µM | > 30 µM | 26.9 µM | > 30 µM |
| OCCN1CCN(CC/C=C2/c3ccccc3Sc3ccc(Cl)cc32)CC1 [ZUCLOPENTHIXOL] | > 10 µM | > 30 µM | 1 µM | 1 µM | > 10 µM | > 10 µM | > 10 µM | 0.0114 µM | > 10 µM | > 10 µM |

— ChEMBL document CHEMBL5291721, “A preclinical secondary pharmacology resource illuminates target-adverse drug reaction associations of marketed drugs” (Nat Commun, 2023)
